Data set [1] in a line: Selectivity index, ratio of IC50 for cytotoxicity against human BEAS-2B cells to IC50 for cytotoxicity against human A549 cells. The settings on record: BEAS-2B cells and A549 cells, read-out: Ratio IC50. The format is toxicity, cell-based.
A short description of data set [2]: Cytotoxicity against human BEAS-2B cells assessed as reduction in cell viability after 48 hrs by MTT assay. The format is toxicity, cell-based. On the technique in general: Tetrazolium dyes change colour on reduction, which living cells bring about.
The test system of the next data set is A549. Briefly: Cytotoxicity against human A549 cells assessed as reduction in cell viability after 48 hrs by MTT assay. Type of data set: functional, cell-based. The note with it: A549, 48 h.
Data set [3] can be described thus: Drug uptake in human A549 cells overexpressing GLUT1 assessed as increase in fluorescence intensity at 25 uM measured after 1 hr by DAPI staining based confocal fluorescence microscopic analysis. The format is ADME, cell-based. The note with it: a549, 1 h.
A short description of data set [4]: Drug uptake in human A549 cells overexpressing GLUT1 assessed as increase in fluorescence intensity at 25 uM measured after 1 hr at 37 degreeC by DAPI staining based confocal fluorescence microscopic analysis. The format is ADME, cell-based. The note with it: a549, 1 h.

Each structure is given as a SMILES string.

Data on eight compounds can be found in ChEMBL document CHEMBL5126504, “A gulose moiety contributes to the belomycin (BLM) disaccharide selective targeting to lung cancer cells” (Eur J Med Chem, 2021).

Take `NC(=O)O[C@@H]1[C@H](O)[C@@H](O[C@H]2C(OCCCCCC(=O)Nc3ccn(C4OC(CO)C(O)C4(F)F)c(=O)n3)O[C@H](CO)[C@H](O)[C@H]2O)O[C@H](CO)[C@H]1O` (stereo partly drawn): the selectivity ratio in data set [1] came to 20. Moreover, in data set [2], the IC50 at 48 h came to 2600 nM. Also, in the data set on A549, the IC50 was 130 nM.

For the compound `CC(=O)OC[C@H]1OC(OCCCCCC(=O)Nc2ccn(C3OC(CO)C(O)C3(F)F)c(=O)n2)[C@@H](O)[C@@H](O)[C@@H]1O` (stereo partly drawn), the IC50 at 48 h in data set [2] was found to be 7780 nM. Besides, the IC50 with A549 was found to be 460 nM.

Turning to `CC[N+]1=C(/C=C/C=C/C=C2/N(CCCCCC(=O)NCCOCCOC3O[C@@H](CO)[C@@H](O)[C@H](O)[C@@H]3O[C@H]3O[C@H](CO)[C@@H](O)[C@H](OC(N)=O)[C@@H]3O)c3ccc(S(=O)(=O)O)cc3C2(C)C)C(C)(C)c2cc(S(=O)(=O)[O-])ccc21` (stereo partly drawn), in data set [3], the Drug uptake entry is “Active”.

As to `CC[N+]1=C(/C=C/C=C/C=C2/N(CCCCCC(=O)NCCOCCOC3O[C@@H](CO)[C@H](O)[C@@H](O)[C@@H]3O[C@H]3O[C@H](CO)[C@@H](O)[C@H](OC(N)=O)[C@@H]3O)c3ccc(S(=O)(=O)O)cc3C2(C)C)C(C)(C)c2cc(S(=O)(=O)[O-])ccc21` (stereo partly drawn), the Drug uptake result in data set [4] and in data set [3] was “Active” throughout.

In the case of `CC[N+]1=C(/C=C/C=C/C=C2/N(CCCCCC(=O)NCCOCCOC3O[C@H](CO)[C@H](O)[C@@H](O)[C@H]3O)c3ccc(S(=O)(=O)O)cc3C2(C)C)C(C)(C)c2cc(S(=O)(=O)[O-])ccc21` (stereo partly drawn), the Drug uptake result in data set [4] and in data set [3] was “Active” in each case.

For `CC(=O)OC[C@H]1OC(OCCCCCC(=O)Nc2ccn(C3OC(CO)C(O)C3(F)F)c(=O)n2)[C@@H](O)[C@@H](OC(N)=O)[C@@H]1O` (stereo partly drawn), the IC50 at 48 h in data set [2] stood at 7770 nM. Also, the IC50 with A549 worked out at 920 nM.

As for `CC(=O)OC[C@H]1OC(OCCCCCC(=O)Nc2ccn(C3OC(CO)C(O)C3(F)F)c(=O)n2)[C@H](O)[C@H](O)[C@H]1O` (stereo partly drawn), in data set [1], the selectivity ratio was 20.9. Besides, the IC50 at 48 h in data set [2] was 5430 nM. Further, the IC50 in the data set on A549 worked out at 260 nM.

As for `Nc1ccn([C@@H]2O[C@H](CO)[C@@H](O)C2(F)F)c(=O)n1` [GEMCITABINE], the selectivity ratio in data set [1] turned out to be 0.88. The IC50 at 48 h in data set [2] turned out to be 37 nM. For the same compound, the IC50 in the data set with A549 amounted to 44 nM.

By IC50 is commonly meant the point on the concentration scale where inhibition reaches its midpoint.
